Data: patent publication US6632829B2, “Sulfonamides and derivatives thereof that modulate the activity of endothelin” (Texas Biotechnology Corp., priority 1996, dated 2003)
pIC50: −log10 of the molar value.

Legend:
human ETA receptors = molecular target: T1, human ETA receptors (Homo sapiens, UniProt P25101); assay: Endothelin binding inhibition, Binding Test #1: competition with 125I-ET-1 for ETA receptors on TE 671 cell membranes
T1 construct: endogenous in cells; host or cells: TE 671 cells (ATCC HTB 139), membrane preparation
T1 sequence (P25101 21-427): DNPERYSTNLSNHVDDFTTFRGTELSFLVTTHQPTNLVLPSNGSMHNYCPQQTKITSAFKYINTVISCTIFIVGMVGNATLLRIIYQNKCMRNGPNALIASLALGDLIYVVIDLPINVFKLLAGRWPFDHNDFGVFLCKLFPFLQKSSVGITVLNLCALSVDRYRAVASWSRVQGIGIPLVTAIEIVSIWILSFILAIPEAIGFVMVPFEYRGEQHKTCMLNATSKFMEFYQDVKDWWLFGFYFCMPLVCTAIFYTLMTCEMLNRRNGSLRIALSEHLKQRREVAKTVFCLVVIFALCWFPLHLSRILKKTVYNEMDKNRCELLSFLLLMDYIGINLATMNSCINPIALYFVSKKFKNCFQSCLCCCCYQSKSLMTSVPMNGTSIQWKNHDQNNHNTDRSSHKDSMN
Protocol: (§1) Cells from multiple flasks were collected by scraping, pooled and centrifuged for 10 min at 190×g. The cells were resuspended in phosphate buffered saline (PBS) containing 10 mM EDTA using a Tenbroeck homogenizer. The suspension was centrifuged at 4° C. at 57,800×g for 15 min, the pellet was resuspended in 5 mL of buffer A (5 mM HEPES buffer, pH 7.4 containing aprotinin (100 KIU/mL)) and then frozen and thawed once. 5 mL of Buffer B (5 mM HEPES Buffer, pH 7.4 containing 10 mM MnCl2 and 0.001% deoxyribonuclease Type 1) was added, the suspension mixed by inversion and then incubated at 37° C. for 30 minutes. The mixture was centrifuged at 57,800×g as described above, the pellet washed twice with buffer A and then resuspended in buffer C (30 mM HEPES buffer, pH 7.4 containing aprotinin (100 KIU/mL) to give a final protein concentration of 2 mg/mL and stored at −70° C. until use.
The membrane suspension (50 μL), containing up to 8 μg of membrane protein, was added to each of (A), (B), or (C). […] Alternatively, the incubation was conducted at 24° C.
The supernatant, containing unbound radioactivity, was decanted and the pellet counted on a Genesys multiwell gamma counter. The degree of inhibition of binding (D) was calculated according to the following equation: [formula]
Each test was generally performed in triplicate.

human ETB receptor = molecular target: T2, human ETB receptor (Homo sapiens, UniProt P24530); assay: Endothelin binding inhibition, Binding Test #2: competition with 125I-ET-1 for ETB receptors on transfected COS7 cell membranes
T2 construct: expressed in transfected cells; host or cells: COS7 cells
T2 sequence (P24530 27-442): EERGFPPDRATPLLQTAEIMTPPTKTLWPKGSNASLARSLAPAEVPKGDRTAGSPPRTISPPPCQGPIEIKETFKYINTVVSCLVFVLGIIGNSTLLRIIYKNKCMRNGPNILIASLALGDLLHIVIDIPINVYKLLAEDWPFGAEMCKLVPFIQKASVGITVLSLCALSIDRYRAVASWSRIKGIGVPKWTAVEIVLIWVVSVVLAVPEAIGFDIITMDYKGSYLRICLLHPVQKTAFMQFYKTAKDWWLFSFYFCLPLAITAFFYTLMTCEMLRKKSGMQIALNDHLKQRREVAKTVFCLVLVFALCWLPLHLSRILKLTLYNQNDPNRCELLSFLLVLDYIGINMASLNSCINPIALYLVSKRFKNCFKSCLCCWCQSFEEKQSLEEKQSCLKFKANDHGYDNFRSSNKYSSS
From the text: Compounds that are potential endothelin antagonists are identified by testing their ability to compete with ^125I-labeled ET-1 for binding to human ETA receptors or ETB receptors present on isolated cell membranes. The effectiveness of the test compound as an antagonist or agonist of the biological tissue response of endothelin can also be assessed by measuring the effect on endothelin induced contraction of isolated rat thoracic aortic rings. The ability of the compounds to act as antagonists or agonists for ETB receptors can be assess by testing the ability of the compounds are to inhibit endothelin-1 induced prostacyclin release from cultured bovine aortic endothelial cells.
COS7 cells were transfected with DNA encoding the ETB receptor, The resulting cells, which express the human ETB receptor, were grown to confluence in T-150 flasks. Membrane was prepared as described above. The binding assay was performed as described above using the membrane preparation diluted with binding buffer to a concentration of 1 μg/50 μL.
as §1, with “Briefly, the COS7 cells, described above, that had been transfected with DNA encoding the ETB receptor and express the human ETB receptor on their surfaces were grown to confluence in T-175 flasks. Cells” for “Cells”, “C.” for “C. at”, “once. Five” for “once. 5”, “2 mg/mL.” for “2 mg/mL and stored at −70° C. until use.”
The binding assay was performed as described above using the membrane preparation diluted to give 1 μg/50 μL of binding buffer.

[1] = incubation at 4° C. (values without †)
[2] = incubation at 24° C. (values marked †)

pIC50 (human ETA receptors; [1])	pIC50 (human ETB receptor; [1])	pIC50 (human ETA receptors; [2])	pIC50 (human ETB receptor; [2])	inhibition at 100 µM (human ETB receptor; read-out: ETB % inhibition @ 100 μM, @ 100 μM, incubation at 24° C.) [%]	Structure (SMILES)
6.78	4.78				Cc1noc(NS(=O)(=O)c2c(C)sc3ccccc23)c1C [N-(3,4-dimethyl-5-isoxazolyl)-2-methylbenzo[b]thiophene-3-sulfonamide]
		6.97	5.62		Cc1cc(CCC(C)C)ccc1-c1ccsc1S(=O)(=O)Nc1onc(C)c1Br [N-(4-bromo-3-methyl-5-isoxazolyl)-3-(4-iso-pentyl-2-methylphenyl)thiophene-2-sulfonamide]
		5.92	3.95		Cc1cccc(OC(=O)c2sccc2S(=O)(=O)Nc2onc(C)c2Br)c1 [N-(4-bromo-3-methyl-5-isoxazolyl)-2-[(3-methylphenoxy)carbonyl]thiophene-3-sulfonamide]
		7.11	4.52		Cc1cc(C)c(OC(=O)c2sccc2S(=O)(=O)Nc2onc(C)c2Cl)c(C)c1 [N-(4-chloro-3-methyl-5-isoxazolyl)-2-[(2,4,6-trimethylphenoxy)carbonyl]thiophene-3-sulfonamide]
		7.64	4.82		COc1ccc(OC(=O)c2sccc2S(=O)(=O)Nc2onc(C)c2Cl)cc1 [N-(4-chloro-3-methyl-5-isoxazolyl)-2-[(4-methoxyphenoxy)carbonyl]thiophene-3-sulfonamide]
		7.68	5.19		Cc1noc(NS(=O)(=O)c2ccsc2C(=O)Cc2ccc3c(c2)OCO3)c1Cl [N-(4-chloro-3-methyl-5-isoxazolyl)-2-[3,4-(methylenedioxy)phenylacetyl]thiophene-3-sulfonamide]
		5.09	5.49		Cc1noc(NS(=O)(=O)c2sccc2Cc2ccc3c(c2)OCO3)c1Br [N-(4-bromo-3-methyl-5-isoxazolyl)-3-[(3,4-methylenedioxy)benzyl]thiophene-2-sulfonamide]
		6.27		8	Cc1cc(C)c(OC(=O)c2sccc2S(=O)(=O)Nc2onc(C)c2C)c(C)c1 [N-(3,4-dimethyl-5-isoxazolyl)-2-[(2,4,6-trimethylphenoxy)carbonyl]thiophene-3-sulfonamide]
		6.03	6.18		Cc1ccc(/C=C/c2ccsc2S(=O)(=O)Nc2onc(C)c2Br)cc1 [N-(4-bromo-3-methyl-5-isoxazolyl)-3-(4-methyl-trans-styryl)thiophene-2-sulfonamide]
		7.26	5.79		Cc1cc(C)c(CCc2ccsc2S(=O)(=O)Nc2onc(C)c2Br)c(C)c1 [N-(4-bromo-3-methyl-5-isoxazolyl)-3-(2,4,6-trimethylphenethyl)thiophene-2-sulfonamide]
		7.10	5.49		Cc1noc(NS(=O)(=O)c2sccc2CC=Cc2cc3c(cc2CO)OCO3)c1Br [N-(4-bromo-3-methyl-5-isoxazolyl)-3-[2-(hydroxymethyl)-4,5-(methylenedioxy)cinnamyl]thiophene-2-sulfonamide]
		7.33	5.78		Cc1cc(CC(C)C)ccc1-c1ccsc1S(=O)(=O)Nc1onc(C)c1Br [N-(4-bromo-3-methyl-5-isoxazolyl)-3-(4-iso-butyl-2-methylphenyl)thiophene-2-sulfonamide]
		6.68	4.70		Cc1noc(NS(=O)(=O)c2ccsc2C(=O)Nc2ccccc2C(=O)O)c1Br [N-(4-bromo-3-methyl-5-isoxazolyl)-2-[2-carboxylphenyl)aminocarbonyl]-thiophene-3-sulfonamide]
		6.16	3.98		Cc1ccccc1OC(=O)c1sccc1S(=O)(=O)Nc1onc(C)c1Br [N-(4-bromo-3-methyl-5-isoxazolyl)-2-[(2-methylphenoxy)carbonyl]thiophene-3-sulfonamide]
		7.28	4.80		Cc1noc(NS(=O)(=O)c2ccsc2CC(O)c2ccc3c(c2)OCO3)c1Cl (stereo not drawn) [N-(4-chloro-3-methyl-5-isoxazolyl)-2-[β-hydroxy(3,4-methylenedioxy)phenylethyl]thiophene-3-sulfonamide]
		6.57	5.11		Cc1noc(NS(=O)(=O)c2ccsc2Cc2ccc3c(c2)OCO3)c1Br [N-(4-bromo-3-methyl-5-isoxazolyl)-2-[(3,4-methylenedioxy)benzyl]thiophene-3-sulfonamide]
		6.19	4.16		Cc1ccc(OC(=O)c2sccc2S(=O)(=O)Nc2onc(C)c2Cl)c(C)c1 [N-(4-chloro-3-methyl-5-isoxazolyl)-2-[(2,4-dimethylphenoxy)carbonyl]thiophene-3-sulfonamide]
		4.80	6.10		Cc1noc(NS(=O)(=O)c2ccc(-c3cc4ccccc4s3)s2)c1Br [N-(4-bromo-3-methyl-5-isoxazolyl)-5-(benzo[b]thien-2-yl)thiophene-2-sulfonamide]
		8.14	5.22		Cc1noc(NS(=O)(=O)c2ccsc2C(=O)Oc2ccc3c(c2)OCO3)c1Br [N-(4-bromo-3-methyl-5-isoxazolyl)-2-[(3,4-methylenedioxy)phenoxycarbonyl]thiophene-3-sulfonamide]
		4.55	4.22		Cc1noc(NS(=O)(=O)c2ccc(C(=O)Nc3ccccc3)s2)c1Cl [N-(4-chloro-3-methyl-5-isoxazolyl)-5-(phenylaminocarbonyl)thiophene-2-sulfonamide]
		6.32	4.61		Cc1cc(C)c(OC(=O)c2sccc2S(=O)(=O)Nc2onc(C)c2Br)c(C)c1 [N-(4-bromo-3-methyl-5-isoxazolyl)-2-[(2,4,6-trimethylphenoxy)carbonyl]thiophene-3-sulfonamide]
		7.64	4.36		Cc1ccc(NC(=O)c2sccc2S(=O)(=O)Nc2onc(C)c2Cl)nc1 [N-(4-chloro-3-methyl-5-isoxazolyl)-2-[(3-methyl-6-pyridyl)aminocarbonyl]thiophene-3-sulfonamide]

Structure (SMILES)	pIC50 (human ETA receptors; [1])	pIC50 (human ETB receptor; [1])	pIC50 (human ETA receptors; [2])	pIC50 (human ETB receptor; [2])	inhibition at 100 µM (human ETB receptor; read-out: ETB % inhibition @ 100 μM, @ 100 μM, incubation at 24° C.) [%]
Cc1ccc(CC(=O)c2sccc2S(=O)(=O)Nc2onc(C)c2Cl)c(C)c1 [N-(4-chloro-3-methyl-5-isoxazolyl)-(2,4-dimethylphenylacetyl)thiophene-3-sulfonamide]			9.40	5.32	
CC(=O)OCc1c(C)cc(C)c(NC(=O)c2sccc2S(=O)(=O)Nc2onc(C)c2C)c1C [N-(3,4-dimethyl-5-isoxazolyl)-2-(3-acetoxymethyl-2,4,6-trimethylphenylaminocarbonyl)thiophene-3-sulfonamide]			9.01	3.81	
